# Results published in patent publication US10183021B2, “sGC stimulators” (Ironwood Pharmaceuticals, Inc., priority 2013, dated 2019).
# Target: soluble guanylate cyclase (sGC) (Homo sapiens (Human), UniProt Q02108+Q02153)
# Experiment: sGC-HEK-cGMP assay, new protocol with DETA-NONOate, LC/MS detection (Example 2C)
# Type: cell-based
# Details: HEK293 cells, 10 μM DETA-NONOate, LC/MS detection; concentration eliciting 50% of high control response (30 μM I-329); read-out: Absolute EC50 (uM) - binned
# Sequence of soluble guanylate cyclase (sGC) (Q02153 whole entry): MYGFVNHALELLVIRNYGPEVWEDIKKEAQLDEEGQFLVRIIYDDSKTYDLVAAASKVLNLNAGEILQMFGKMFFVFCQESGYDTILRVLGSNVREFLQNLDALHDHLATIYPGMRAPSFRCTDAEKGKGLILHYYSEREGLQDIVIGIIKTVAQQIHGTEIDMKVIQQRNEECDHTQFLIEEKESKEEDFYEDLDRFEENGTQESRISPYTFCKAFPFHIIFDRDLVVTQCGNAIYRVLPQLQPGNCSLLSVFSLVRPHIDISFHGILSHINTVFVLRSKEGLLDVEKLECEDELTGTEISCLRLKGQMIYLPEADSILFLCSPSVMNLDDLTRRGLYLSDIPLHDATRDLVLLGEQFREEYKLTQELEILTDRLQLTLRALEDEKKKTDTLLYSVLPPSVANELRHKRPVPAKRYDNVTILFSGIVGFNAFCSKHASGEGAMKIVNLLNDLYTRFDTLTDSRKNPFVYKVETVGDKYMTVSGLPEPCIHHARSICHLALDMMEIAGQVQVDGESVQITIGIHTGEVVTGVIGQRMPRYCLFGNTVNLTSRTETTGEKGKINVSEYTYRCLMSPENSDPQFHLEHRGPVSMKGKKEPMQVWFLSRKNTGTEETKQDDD
# Sequence of soluble guanylate cyclase (sGC) (Q02108 whole entry): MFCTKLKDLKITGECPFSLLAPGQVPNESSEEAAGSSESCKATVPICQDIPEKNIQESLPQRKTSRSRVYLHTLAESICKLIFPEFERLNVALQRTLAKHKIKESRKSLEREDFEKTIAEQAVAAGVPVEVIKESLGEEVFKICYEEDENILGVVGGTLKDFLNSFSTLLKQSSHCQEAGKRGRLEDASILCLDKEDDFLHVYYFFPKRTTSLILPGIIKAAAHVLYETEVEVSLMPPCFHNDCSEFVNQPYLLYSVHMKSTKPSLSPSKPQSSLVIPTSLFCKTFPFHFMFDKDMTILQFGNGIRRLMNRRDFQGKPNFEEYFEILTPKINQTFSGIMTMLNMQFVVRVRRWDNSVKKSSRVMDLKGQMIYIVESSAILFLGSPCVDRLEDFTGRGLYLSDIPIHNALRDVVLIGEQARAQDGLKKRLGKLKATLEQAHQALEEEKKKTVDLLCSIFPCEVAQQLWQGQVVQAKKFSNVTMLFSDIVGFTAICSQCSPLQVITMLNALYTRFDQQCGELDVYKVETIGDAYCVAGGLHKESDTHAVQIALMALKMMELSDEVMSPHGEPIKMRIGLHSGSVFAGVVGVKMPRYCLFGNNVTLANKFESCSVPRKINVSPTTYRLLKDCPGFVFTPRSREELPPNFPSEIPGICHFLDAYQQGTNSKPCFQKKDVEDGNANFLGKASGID
row,SMILES,EC50
1,O=C(Nc1ccnc(-c2cc(-c3ccon3)n(Cc3ccccc3F)n2)n1)c1cocn1 [Compound I-557],> 1 µM

# Same assay, conditions: read-out: Absolute EC50 (uM) - binned
row,SMILES,EC50
1,CS(=O)(=O)CCC(Nc1nc(-c2cc(-c3ccon3)n(Cc3ccccc3F)n2)ncc1F)C(F)(F)F (stereo not drawn) [Compound I-588],0.101 to 1 µM
2,CC1(C(=O)NC2CC2)CCN(c2nc(-c3cc(-c4ccon4)n(Cc4ccccc4F)n3)ncc2F)C1=O (stereo not drawn) [Compound I-605],0.101 to 1 µM
3,CS(=O)(=O)NC(=O)CNc1nc(-c2cc(-c3ccon3)n(Cc3ccccc3F)n2)ncc1F [Compound I-546],> 1 µM
4,O=[N+]([O-])c1cnc(-c2cc(-c3ccon3)n(Cc3ccccc3F)n2)nc1NCC(O)(C(F)(F)F)C(F)(F)F [Compound I-483],> 1 µM
5,O=C(CN1CCOC1=O)Nc1ccnc(-c2cc(-c3ccon3)n(Cc3ccccc3F)n2)n1 [Compound I-600],0.101 to 1 µM
6,CC1(C(N)=O)C(=O)Nc2nc(-c3cc(-c4ccon4)n(Cc4ccccc4F)n3)nc(N)c21 (stereo not drawn) [Compound I-421],0.101 to 1 µM
7,CCOC(=O)C1=C(O)CN(c2nc(-c3cc(-c4ccon4)n(Cc4ccccc4F)n3)ncc2F)CC1 [Compound I-378],< 0.1 µM
8,N#CC1(C(=O)Nc2ccnc(-c3cc(-c4ccon4)n(Cc4ccccc4F)n3)n2)CC1 [Compound I-551],> 1 µM
9,O=C(Cn1cnc2ccccc2c1=O)Nc1ccnc(-c2cc(-c3ccon3)n(Cc3ccccc3F)n2)n1 [Compound I-601],> 1 µM
10,CC1(C(=O)NC2CC2)C(=O)Nc2nc(-c3cc(-c4ccon4)n(Cc4ccccc4F)n3)nc(N)c21 (stereo not drawn) [Compound I-422],0.101 to 1 µM
11,O=C(O)C(O)(CNc1nc(-c2cc(-c3ccon3)n(Cc3cccc(F)c3F)n2)ncc1F)C(F)(F)F (stereo not drawn) [Compound I-489],> 1 µM
12,OC1(CNc2nc(-c3cc(-c4ccon4)n(Cc4ccccc4F)n3)ncc2F)CNC1 [Compound I-353],> 1 µM
13,OCC(O)(CNc1nc(-c2cc(-c3ccon3)n(Cc3ccccc3F)n2)ncc1F)C(F)(F)F (stereo not drawn) [Compound I-355],< 0.1 µM
14,O=C(CNC(=O)OCc1ccccc1)Nc1ccnc(-c2cc(-c3ccon3)n(Cc3ccccc3F)n2)n1 [Compound I-598],> 1 µM
15,NC(=O)C1CCC(=O)N1c1nc(-c2cc(-c3ccon3)n(Cc3ccccc3F)n2)ncc1F (stereo not drawn) [Compound I-534],> 1 µM
16,Nc1cnc(-c2cc(-c3ccon3)n(Cc3ccccc3F)n2)nc1NCC(O)(C(F)(F)F)C(F)(F)F [Compound I-484],0.101 to 1 µM
17,COC(=O)[C@@H]1CCC(=O)N1c1nc(-c2cc(-c3ccon3)n(Cc3ccccc3F)n2)ncc1F [Compound I-401],> 1 µM
18,CC(C)(C)OC(=O)NCC(=O)Nc1ccnc(-c2cc(-c3ccon3)n(Cc3ccccc3F)n2)n1 [Compound I-519],0.101 to 1 µM
19,O=C(Nc1ccnc(-c2cc(-c3ccon3)n(Cc3ccccc3F)n2)n1)C1(OCc2ccccc2)CCOCC1 [Compound I-525],> 1 µM
20,C[C@@H]1CN(c2nc(-c3cc(-c4ccon4)n(Cc4ccccc4F)n3)ncc2F)C[C@@H]1C(=O)O [Compound I-314],< 0.1 µM
21,COCCS(=O)(=O)Nc1ccnc(-c2cc(-c3ccon3)n(Cc3ccccc3F)n2)n1 [Compound I-479],0.101 to 1 µM
22,O=S(=O)(CCNc1nc(-c2cc(-c3ccon3)n(Cc3ccccc3F)n2)ncc1F)NC[C@H](O)CO [Compound I-437],0.101 to 1 µM
23,COCCS(=O)(=O)Nc1nc(-c2cc(-c3ccon3)n(Cc3ccccc3F)n2)ncc1F [Compound I-446],> 1 µM
24,O=C(CN1C(=O)c2ccccc2C1=O)Nc1ccnc(-c2cc(-c3ccon3)n(Cc3ccccc3F)n2)n1 [Compound I-596],> 1 µM

row,SMILES,EC50
1,O=C(Nc1ccnc(-c2cc(-c3ccon3)n(Cc3ccccc3F)n2)n1)C(F)(F)F [Compound I-164],0.101 to 1 µM
2,O=S(=O)(CCO)Nc1ccnc(-c2cc(-c3ccon3)n(Cc3ccccc3F)n2)n1 [Compound I-539],> 1 µM
3,CC(=O)c1cc(-c2ncc(F)c(N3CCC[C@H](C)[C@@H]3C(=O)O)n2)nn1Cc1ccccc1F [Compound I-463],0.101 to 1 µM
4,OCC(O)(CCl)CNc1nc(-c2cc(-c3ccon3)n(Cc3ccccc3F)n2)ncc1F (stereo not drawn) [Compound I-352],< 0.1 µM
5,CS(=O)(=O)CC(=O)Nc1nc(-c2cc(-c3ccon3)n(Cc3ccccc3F)n2)ncc1F [Compound I-616],0.101 to 1 µM
6,CS(=O)(=O)NCC(=O)Nc1ccnc(-c2cc(-c3ccon3)n(Cc3ccccc3F)n2)n1 [Compound I-543],0.101 to 1 µM
7,OC[C@@H](O)CN(CC1CC1)c1nc(-c2cc(-c3ccon3)n(Cc3ccccc3F)n2)ncc1F [Compound I-322],< 0.1 µM
8,C[C@@H](Nc1nc(-c2cc(-c3ccon3)n(Cc3ccccc3F)n2)ncc1F)c1nnc(C(F)(F)F)o1 [Compound I-622],< 0.1 µM
9,O=C(CS(=O)(=O)c1ccccc1)Nc1ccnc(-c2cc(-c3ccon3)n(Cc3ccccc3F)n2)n1 [Compound I-592],> 1 µM
10,O=S(=O)(CCNc1nc(-c2cc(-c3ccon3)n(Cc3ccccc3F)n2)ncc1F)NO [Compound I-432],< 0.1 µM
11,O=C(NS(=O)(=O)C1CCN(c2nc(-c3cc(-c4ccon4)n(Cc4ccccc4F)n3)ncc2F)C1)C1CC1 (stereo not drawn) [Compound I-429],< 0.1 µM
12,CS(=O)(=O)NCC(O)CNc1nc(-c2cc(-c3ccon3)n(Cc3ccccc3F)n2)ncc1F (stereo not drawn) [Compound I-349],< 0.1 µM
13,CS(=O)(=O)CS(=O)(=O)Nc1ccnc(-c2cc(-c3ccon3)n(Cc3ccccc3F)n2)n1 [Compound I-472],> 1 µM
14,Nc1nc(-c2cc(-c3ccon3)n(Cc3ccccc3F)n2)nc2c1CS(=O)(=O)C2 [Compound I-632],> 1 µM
15,OCC(CO)Nc1cnnc(-c2cc(-c3ccon3)n(Cc3ccccc3F)n2)n1 [Compound I-416],> 1 µM
16,CC(=O)OCC(=O)Nc1ccnc(-c2cc(-c3ccon3)n(Cc3ccccc3F)n2)n1 [Compound I-497],0.101 to 1 µM
17,CC(=O)NNC(=O)C1(C)C(=O)Nc2nc(-c3cc(-c4ccon4)n(Cc4ccccc4F)n3)nc(N)c21 (stereo not drawn) [Compound I-623],> 1 µM
18,NS(=O)(=O)Nc1ccnc(-c2cc(-c3ccon3)n(Cc3ccccc3F)n2)n1 [Compound I-456],0.101 to 1 µM
19,Cc1nnc(CNc2nc(-c3cc(-c4ccon4)n(Cc4ccccc4F)n3)ncc2F)o1 [Compound I-496],< 0.1 µM
20,O=C(Nc1ccccc1)Nc1ccnc(-c2cc(-c3ccon3)n(Cc3ccccc3F)n2)n1 [Compound I-583],> 1 µM
21,O=C(Nc1ccnc(-c2cc(-c3ccon3)n(Cc3ccccc3F)n2)n1)c1cncs1 [Compound I-552],> 1 µM
22,Cc1cc(-c2ncc(F)c(=O)[nH]2)nn1Cc1ccccc1F [Compound I-410],> 1 µM
23,NCC(=O)Nc1ccnc(-c2cc(-c3ccon3)n(Cc3ccccc3F)n2)n1 [Compound I-520],0.101 to 1 µM
24,CN(c1nc(-c2cc(-c3ccon3)n(Cc3ccccc3F)n2)ncc1F)S(C)(=O)=O [Compound I-629],> 1 µM

row,SMILES,EC50
1,O=C(Nc1ccnc(-c2cc(-c3ccon3)n(Cc3ccccc3F)n2)n1)c1cscn1 [Compound I-549],> 1 µM
2,O=S(=O)(Cc1ccc(F)cc1)Nc1nc(-c2cc(-c3ccon3)n(Cc3ccccc3F)n2)ncc1F [Compound I-607],0.101 to 1 µM
3,O=C(O)C12CC1CCCN2c1nc(-c2cc(-c3ccon3)n(Cc3ccccc3F)n2)ncc1F (stereo not drawn) [Compound I-308],0.101 to 1 µM
4,O=C(Nc1ccnc(-c2cc(-c3ccon3)n(Cc3ccccc3F)n2)n1)C1(O)CC1 [Compound I-478],< 0.1 µM
5,O=C(Nc1ccnc(-c2cc(-c3ccon3)n(Cc3ccccc3F)n2)n1)c1ccccc1O [Compound I-577],0.101 to 1 µM
6,CCOC(=O)C1(C)C(=O)Nc2nc(-c3cc(-c4ccon4)n(CCC(F)(F)F)n3)nc(N)c21 (stereo not drawn) [Compound I-618],> 1 µM
7,O=C1CCC(C(F)(F)F)N1c1nc(-c2cc(-c3ccon3)n(Cc3ccccc3F)n2)ncc1F (stereo not drawn) [Compound I-501],> 1 µM
8,C[C@H]1[C@@H](C(=O)O)CCCN1c1nc(-c2cc(-c3ccon3)n(Cc3ccccc3F)n2)ncc1F [Compound I-311],0.101 to 1 µM
9,CO[C@H](C(=O)Nc1ccnc(-c2cc(-c3ccon3)n(Cc3ccccc3F)n2)n1)c1ccccc1 [Compound I-559],0.101 to 1 µM
10,CC(=O)NS(=O)(=O)CCNc1nc(-c2cc(-c3ccon3)n(Cc3ccccc3F)n2)ncc1F [Compound I-385],0.101 to 1 µM
11,C[C@H]1CCCN(c2nc(-c3cc(-c4ccon4)n(Cc4ccccc4F)n3)ncc2F)[C@@H]1C(=O)NS(=O)(=O)C1CC1 [Compound I-332],< 0.1 µM
12,CC(C)S(=O)(=O)Nc1nc(-c2cc(-c3ccon3)n(Cc3ccccc3F)n2)ncc1F [Compound I-505],0.101 to 1 µM
13,O=c1c(O)c(Nc2ccnc(-c3cc(-c4ccon4)n(Cc4ccccc4F)n3)n2)c1=O [Compound I-402],> 1 µM
14,CC(O)CN(CC(C)O)c1nc(-c2cc(-c3ccon3)n(Cc3ccccc3F)n2)ncc1F (stereo not drawn) [Compound I-431],< 0.1 µM
15,NC(=O)C(O)(CNc1nc(-c2cc(-c3ccon3)n(Cc3cccc(F)c3F)n2)ncc1F)C(F)(F)F (stereo not drawn) [Compound I-522],< 0.1 µM
16,Fc1ccccc1Cn1nc(-c2ncc(F)c(NCc3nnc(C(F)(F)F)o3)n2)cc1-c1ccon1 [Compound I-608],< 0.1 µM
17,NC(=O)C1(O)CCN(c2nc(-c3cc(-c4ccon4)n(Cc4ccccc4F)n3)ncc2F)CC1 [Compound I-438],< 0.1 µM
18,O=C(Nc1ccnc(-c2cc(-c3ccon3)n(Cc3ccccc3F)n2)n1)c1cc(C2CC2)n[nH]1 [Compound I-564],> 1 µM
19,O=S(=O)(CC(F)(F)F)Nc1nc(-c2cc(-c3ccon3)n(Cc3ccccc3F)n2)ncc1F [Compound I-609],> 1 µM
20,O=C(Nc1ccnc(-c2cc(-c3ccon3)n(Cc3ccccc3F)n2)n1)c1cccc(=O)[nH]1 [Compound I-553],> 1 µM
21,O=C(O)[C@@H]1CN(c2nc(-c3cc(-c4ccon4)n(Cc4ccccc4F)n3)ncc2F)C[C@H]1C(F)(F)F [Compound I-424],< 0.1 µM
22,Oc1c(F)cc(CNc2nc(-c3cc(-c4ccon4)n(Cc4ccccc4F)n3)ncc2F)cc1F [Compound I-317],< 0.1 µM
23,Cc1cc(-c2ncc(F)c(NC(CO)CO)n2)nn1Cc1ccccc1F [Compound I-413],> 1 µM
